What was measured:
[1] = target: T1, BTK-1h (Homo sapiens, UniProt Q06187); experiment: High-throughput screening with 1h-labeled BTK; format: binding; conditions: Dataset S2A; 200 μM compound, BTK-1h, 32 °C, 10 min
T1 construct: The BTK kinase domain was diluted to 2 μM in the buffer, and 2 μM 1h was added; made in house
Description: The collection was composed of BTK binding compounds obtained in our previous luminescence screen[37] (Data set S2). […] The resulting BTK-1h (50 μL) was added to the inhibitors.

[2] = target: BTK (Homo sapiens, UniProt Q06187); set-up: BTK kinase domain was expressed and purified as previously reported; made in house; method as in Reddi et al., J. Am. Chem. Soc. 2021, 143 (13), 4979–4992; conditions: ref Reddi et al., J. Am. Chem. Soc. 2021, 143 (13), 4979–4992; cited from earlier work
BTK, sequence (Q06187 402-655 limits assumed): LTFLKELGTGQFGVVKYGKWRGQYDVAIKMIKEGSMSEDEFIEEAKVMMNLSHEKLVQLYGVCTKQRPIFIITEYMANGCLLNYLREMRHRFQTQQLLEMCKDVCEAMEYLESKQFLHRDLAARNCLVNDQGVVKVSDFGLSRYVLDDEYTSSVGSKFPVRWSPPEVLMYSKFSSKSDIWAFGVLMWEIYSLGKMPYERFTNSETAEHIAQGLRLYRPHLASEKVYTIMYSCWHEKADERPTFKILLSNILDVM

T1 sequence (Q06187 402-655): as the sequence (Q06187 402-655 limits assumed) above

| SMILES | FI (650)/FI (620) [1] | FI (BTK-1h)/FI (BTK-1h+Inhibitor) at 620 nm [1] | BTK Inhibition reported in luminescence assay* [2] |
| --- | --- | --- | --- |
| NC(=O)Nc1cc(-c2cccc(F)c2)sc1C(=O)N[C@H]1CCCNC1 [PCM-0095092-003] | 1.105 | 1.137 | 86.9 |
| COCCCc1sc(-c2ccccc2)nc1C(=O)Nc1ccccc1-c1nc2cc(CN3CCCC3)cnc2s1.Cl [PCM-0215812-001] | 0.6133 | 1.029 | 57.9 |
| CC(C)=CCc1cc2c(cc1O)O[C@H](c1ccc(O)cc1)CC2=O [PCM-0216180-001] | 1.0081 | 1.015 | 54.1 |
| Cc1cc(N2CCOCC2)cc2[nH]c(-c3c(NC[C@@H](O)c4cccc(Cl)c4)cc[nH]c3=O)nc12 [PCM-0214699-001] | 1.235 | 1.093 | 109 |
| Cc1cc(Nc2nc(N[C@@H](C)c3ccc(F)cc3)c(C#N)cc2F)n[nH]1 [PCM-0095250-002] | 1.215 | 1.03 | 99.3 |
| COS(=O)(=O)[O-].C[n+]1c2ccccc2nc2ccccc21 [PCM-0216061-001] | 1.059 | 1.045 | 64.9 |
| Cl.Cl.Fc1ccc(C(c2ccc(F)cc2)N2CCN(C/C=C/c3ccccc3)CC2)cc1 [PCM-0065210-003] | 0.8526 | 1.036 | 87.2 |
| Cc1cc(Nc2cc(CN3CCOCC3)c3nc(C)c(Cc4ccc(Cl)cc4F)n3n2)n[nH]1 [PCM-0095222-002] | 1.03 | 1.045 | 56.6 |
| Cc1c[nH]c2nc(Nc3ccc(N4CCN(C)CC4)c(F)c3)nc(-c3cccc(CC#N)c3)c12 [PCM-0215633-001] | 1.1215 | 1.062 | 92.4 |
| CCCCCCCCCCCCCCCC(=O)O[C@@H]1[C@@H](O)[C@@H](O)[C@@H]([C@H](NC(=O)[C@@H]2C[C@@H](CCC)CN2C)[C@H](C)Cl)O[C@@H]1SC.Cl [PCM-0215167-001] | 0.5899 | 0.9902 | 73.2 |
| CC(C)(C)c1cc(NC(=O)Nc2ccc(Oc3ccnc4[nH]c(=O)cnc34)cc2F)n(-c2ccccc2)n1 [PCM-0215780-001] | 1.123 | 1.039 | 61.4 |
| Cc1cnc(Nc2ccc(F)cc2Cl)nc1-c1c[nH]c(C(=O)N[C@H](CO)c2cccc(Cl)c2)c1 [PCM-0213398-002] | 1.007 | 1.033 | 60 |
| C=CC(=O)Nc1cccc(Nc2nc(Nc3ccc(OCCOC)cc3)ncc2F)c1 [PCM-0095787-002] | 1.569 | 1.288 | 90.3 |
| Cc1ccccc1C(=O)Nc1ccc(C(=O)N2CCCC(N(C)C)c3ccccc32)cc1 (stereo not drawn) [PCM-0095424-002] | 1.034 | 1.021 | 70 |
| Cn1cc(C2=C(c3cccc(N)c3)C(=O)NC2=O)c2ccccc21 [PCM-0215795-001] | 1.701 | 1.062 | 80.3 |
| CCCCCC/C=C\CCCCCCCc1cccc(O)c1C(=O)O [PCM-0216327-001] | 3.101 | 1.308 | 84.2 |

— paper PMC8662641, “Site-Specific Labeling of Endogenous Proteins Using CoLDR Chemistry” (Journal of the American Chemical Society, 2021)
